Test results published in US20250017215A1, “LIQUID CARRIER CONCENTRATE COMPRISING AT LEAST ONE BENEFICIAL MICROORGANISM AND USES THEREOF” (priority 2021, published 2025).

How the values were obtained:
Beauveria bassiana = assay: Microbial viability of liquid carrier concentrates upon accelerated storage stability study (shelf-life), colony counting; assay type: cell-based; conditions: storage at 25° C. without agitation
Experimental: (§1) Standard procedure for microbial viability assessment of liquid carrier concentrates upon accelerated storage stability study (Shelf-life assessment) In order to evaluate the shelf-life of liquid carrier concentrate of the fungi, the liquid carrier concentrates were prepared by mixing 5 wt % of a commercial product (biopesticide) containing a beneficial microorganism and 95 wt % of the solvent to be tested.
(§2) The commercial products tested were in powder form, and the beneficial microorganisms in the composition were: • Beauveria bassiana, • Paecilomyces lilacinus.
(§3) For comparison, a control experiment without the solvent was prepared. For Beauveria bassiana and Paecilomyces lilacinus, 5 wt % of the powder commercial product was added to 95 wt % soybean oil, 2-ethylhexyl lactate or isoamyl laurate.
(§4) The preparations were incubated under accelerated temperature test conditions, at 25° C. and the viability of the microorganism was evaluated after 0, 15 days, 1 month, 3 months, 6 months, 9 months, 12 months and 14 months of incubation without agitation. Trials were performed in duplicates.
(§5) To confirm that the microorganisms were viable after determined incubation/storage time, traditional serial dilution and plating of the samples for colony counting were performed.
(§6) For fungi evaluation, samples of 0.1 mL were taken from each preparation and added to 0.9 mL of an aqueous solution containing 0.1% of Tween 80 (polyoxyethylene sorbitan monooleate) to obtain a 10^−1 dilution. Then 0.1 mL of this dilution was added to 0.9 mL of the same aqueous solution successively until the most appropriate dilution was obtained (usually between 10-4 and 10-7). 0.2 mL of the most appropriate dilutions were spread into petri dishes containing the proper culture media for each microorganism and incubated (at 25° C. for Beauveria bassiana and Paecilomyces lilacinus), until the colony grew.
(§7) The number of the colonies on each petri dish was counted and the results are expressed by colony forming units (CFU)/mL.
(§8) Shelf-life assessment was done on two different fungi (Beauveria bassiana and Paecilomyces lilacinus) in Augeo SL191 solvent (formula (I), with R1, R2: methyl, and R3: H) and in three other benchmark solvents or oils according to the experimental procedures described above. For each microorganism, isoamyl laurate was tested in a different run series which explains the difference between its initial microorganism concentration (CFU/mL) and the one of the other three solvents. The recurrent colony counting was done at different incubation times: t=0, 15 days, 1 month, then every month until the CFU/mL value of a sample drops by two log 10 scale (>100 times), i.e. a reduction of 99%.

Paecilomyces lilacinus = assay: as above; assay type: cell-based; conditions: storage at 25° C. without agitation
Experimental: as §1, §2, §3, §4, §5, §6, §7, §8

CCCCC(CC)COC(=O)C(C)O (stereo not shown) [2-ethyl hexyl lactate, 2-ethylhexyl lactate] was tested, and the “Viability after 1 month” value (Beauveria bassiana; 1 month) was “less than 1E+05 CFU/mL” and the “Viability after 1 month” value (Paecilomyces lilacinus; 1 month) was “less than 1E+05 CFU/mL”.
For CC1(C)OCC(CO)O1 (stereo not shown) [Augeo SL191, Solketal], the “Viability after 14 months” value (Beauveria bassiana; 14 months) was “above 1E+06 CFU/mL” and the “Viability after 14 months” value (Paecilomyces lilacinus; 14 months) was “above 1E+06 CFU/mL”.
